Results taken from publication PMC6801819, “Exogenous Iron Increases Fasciocidal Activity and Hepatocellular Toxicity of the Synthetic Endoperoxides OZ78 and MT04” (International Journal of Molecular Sciences, 2019).

Experiments:
[1] = system: adult F. hepatica; test: In vitro/ex vivo adult worm viability assay; assay type: cell-based, Fasciola hepatica; conditions: score 4 normal activity to 1 death
Protocol: The experiments were performed, as described previously. Adult F. hepatica were collected from bovine liver bile ducts obtained from the local slaughterhouse (Basel, Switzerland). After careful washing, a single adult worm was placed per well (6-well plate, Costar, MA, USA) containing 5.4 mL RPMI 1640 (Gibco, N.Y., USA), supplemented with 1% (v/v) antibiotics (50 µg/mL streptomycin and 50 U/mL penicillin), 1% (v/v) drug solution, […] Control worms were incubated in 1% (v/v) DMSO combined with iron or hemin. Experiments were conducted in triplicates and repeated once. Cultures were kept at 37 °C in an atmosphere of 5% CO2. The viabilities of treated and untreated worms were monitored at 0, 24, 48, and 72 h. Worms were examined by eye and/or using a dissecting microscope (20× lenses). The viability of adult flukes was scored using the following scale: 4: normal activity; movements were visible without a microscope, 3: reduced activities, 2: very weak activities detected only using microscopic magnification, and 1: death of worm (no movement observed for two min using a microscope).

[2] = system: complex II of the mitochondrial electron transport chain; test: High-resolution respirometry, succinate + rotenone (complex II); assay type: cell-based, human; conditions: AS 100 µM, OZ78 500 µM, MT04 500 µM, 24 h, permeabilized HepG2, vs control
Protocol: After incubation with different drugs for 24 h, HepG2 cells were trypsinized and resuspended in DMEM with 10% fetal calf serum (FCS) and then centrifuged for 5 min (180× g). Cells were resuspended in MiRo5 respiration buffer (110 mM sucrose, 0.5 mM ethylene glycol-bis(β-aminoethyl ether)-N,N,N′,N′-tetraacetic acid (EGTA), 3.0 mM MgCl2, 80 mM KCl, 60 mM K-lactobionate, 10 mM KH2PO4, 20 mM taurine, 20 mM Hepes, 1.0 g/L BSA, pH 7.1). Respiration rates were measured at 37 °C using a high-resolution oxygraph (Oxygraph-2k, Oroboros Instruments, Innsbruck, Austria). Respiration rates were calculated as the time derivative of oxygen concentration measured in the closed respirometer. The amplified signal was recorded in a computer with an online display of the calibrated oxygen concentration and oxygen flux (DatLab software for data acquisition and analysis; Oroboros Instruments). The mitochondrial complex activity was assessed by a standard titration protocol: first cells were permeabilized with digitonin (10 µg/1 million cells) for 5 min. Afterward, for complex I-dependent maximal respiration stimulation, substrates added were glutamate (10 mM) and malate (5 mM), which provide nicotinamide adenine dinucleotide (NADH) to the respiratory chain (complex I activation), followed by addition of ADP (2.5 mM) (state 3, maximal respiration). After a stable signal was reached and marked, rotenone (0.5 µM) was added to inhibit complex I, and then complex II-dependent respiration was stimulated by adding succinate (10 mM), which provides flavin adenine dinucleotide (FADH) to the respiratory chain (complex II activation, state 3). Afterward, complex III was inhibited by antimycin A (2.5 µM), and complex IV-dependent respiration was measured by adding ascorbate (2 mM) and N,N,N′,N′-tetramethyl-p-phenylendiamine (TMPD, 0.5 mM). We confirmed the integrity of the outer mitochondrial membrane by showing the absence of a stimulatory effect of exogenous cytochrome c (10 µM) on respiration. Respiration was expressed as oxygen consumption per 5 × 10^5 cells.

[3] = system: HepG2 cells; test: Cellular reactive oxygen species (DCF-DA); assay type: cell-based, human; conditions: 24 h, HepG2; for cellular ROS content: drug + Fe2+
Protocol: Stock solutions of the drugs tested were prepared in DMSO 100% (v/v). […] LC-MS measurements confirmed the stability of the compounds (data not shown). Treatments with AS, MT04, or OZ78 (100 or 500 µM) were performed either alone or in combination with 8% (v/v) hemin or FeCl2 solution for 24 h. The final iron concentration used was 122 µM (stock 1.5 mM) based on previous in vitro studies with F. hepatica. Dichlorodihydrofluorescein diacetate (DCF-DA) dissolved in DMSO was used to assess cellular formation of reactive oxygen species (ROS). HepG2 cells were seeded in a black-wall 96 well plate with a clear bottom as described above. Briefly, 30 min before treatment started, DCF-DA was added to the cells at a final concentration of 25 µM. DCF-DA was removed completely before the drugs were added. ROS was measured after 90 min and 24 h of drug exposure using a Tecan M200 Infinite Pro (excitation 485 nm, emission 535 nm).

[4] = system: NMRI mice; test: Liver toxicity study in mice (plasma AST, aPhos, bilirubin, liver histology); assay type: in vivo, mouse; conditions: for Histopathologic observation: liver 8 hours
Protocol: All animal studies were carried out at the Swiss Tropical and Public Health Institute (Basel, Switzerland) and were approved by Swiss and cantonal authorities (permission: 2070). Female NMRI mice (age: 3–4 weeks, weight: ~20 g) were purchased from Harlan Laboratories (Horst, The Netherlands). Mice were kept in groups of 10 animals in macrolon-cages in environmentally controlled conditions (temperature: ~25 °C; humidity: ~70%; 12 h light/dark cycle) and acclimatized for one week. They had free access to water and rodent diet. For the in vivo studies AS, OZ78 or MT04 were suspended in 7% (v/v) Tween-80 and 3% (v/v) ethanol.
Since treatment of F. hepatica infections in animals is typically performed by a single oral dose, we performed a pilot study to find out the best time point to kill the mice at which we could observe hepatic toxicity after drug application. This time point was 8 h after drug application (data not shown).
In the final experiment, mice were treated with 200, 400, or 800 mg/kg AS, OZ78, or MT04 by oral gavage. Seven mice were left untreated for control measurements. According to the results of the pilot experiments, where we measured the highest increase in total serum bilirubin, AST or alkaline phosphatase 8 h post-treatment, mice were euthanized by CO2 8 h post-treatment, blood was collected and analyzed as described above. After blood collection, the liver was removed, carefully examined macroscopically, and gross lesions were recorded. Livers were then stored in formalin 10% (v/v) until fixation in 4% paraformaldehyde was performed. After embedding in paraffin, sections of 5 μm thickness were obtained, stained with hematoxylin and eosin, and examined using light microscopy.

[5] = system: F. hepatica; conditions: rats infected with F. hepatica, single oral dose AS 200 mg/kg, OZ78 100 mg/kg, MT04 50 mg/kg; cited from earlier work
[6] = 50 µg/mL drug + Fe2+ (iron), 72 h
[7] = mice, single oral dose 200-800 mg/kg, 8 h post-treatment

Row | Compound | viability of adult F. hepatica (viability score) [1, 6] | viability of adult F. hepatica (viability score) ([1]; 50 µg/mL drug + hemin, 72 h) | viability of adult F. hepatica (viability score) ([1]; 50 µg/mL drug alone, 72 h) | inhibition of mitochondrial respiration, succinate + rotenone (complex II) [2] [%] | cellular ROS content [3] | Histopathologic observation ([4]; 200 mg/kg oral, mouse 1) | Histopathologic observation ([4]; 200 mg/kg oral, mouse 2) | Histopathologic observation ([4]; 200 mg/kg oral, mouse 3) | Histopathologic observation ([4]; 400 mg/kg oral, mouse 1) | Histopathologic observation ([4]; 400 mg/kg oral, mouse 2) | Histopathologic observation ([4]; 400 mg/kg oral, mouse 3) | Histopathologic observation ([4]; 800 mg/kg oral, mouse 1) | Histopathologic observation ([4]; 800 mg/kg oral, mouse 2) | Histopathologic observation ([4]; 800 mg/kg oral, mouse 3) | liver histology, group summary ([4]; mice, 800 mg/kg oral, 8 h) | plasma aspartate aminotransferase (AST) [4, 7] | killing of juvenile and adult liver flukes in vivo [5] | also measured
1 | C[C@H]1[C@H](OC(=O)CCC(=O)O)O[C@@H]2O[C@@]3(C)CC[C@H]4[C@H](C)CC[C@@H]1[C@@]24OO3 [AS, artesunate, reference compound] | death of the worms | death of the worms | death of the worms | 83 | increased the cellular ROS content | No lesions | No lesions | No lesions | No lesions | No lesions | Beginning nodular regeneration | Steatosis | Small area of confluent necrosis | No lesions | one mouse was without lesions, one with steatosis, and one with confluent necrosis | moderately increased with escalating doses | efficiently killed juvenile and adult liver flukes | increase of cellular ROS content, factor ([3]; drug alone (100 or 500 µM), no exogenous iron): 5; liver histology, group summary ([4]; mice, 200 mg/kg oral, 8 h): not associated with liver injury; time of highest values of AST, aPhos and total serum bilirubin (pilot study) ([4]; mice, single oral dose 400 mg/kg, sampled 2, 4, 8, 12, 24 h): 8 h; plasma alkaline phosphatase (aPhos) [4, 7]: did not increase; total serum bilirubin [4, 7]: did not increase; liver lesions (pilot study) ([4]; mouse, in vivo, po, 400 mg/kg): no liver lesions were observed
2 | O=C(O)CC1CCC2(CC1)OOC1(OO2)C2CC3CC(C2)CC1C3 (stereo not shown) [MT04] | 1.6 | death of the worms | 1.6 | 61 | not | No lesions | No lesions | No lesions | Nuclear polymorphism | Nuclear polymorphism | No lesions | No lesions | Slight hydropic degeneration | Slight hydropic degeneration and nuclear polymorphism | Three out of four mice treated with 800 mg/kg MT04 presented hydropic degeneration | did not affect AST levels in a concentration-dependent fashion | efficiently killed juvenile and adult liver flukes | viability of adult F. hepatica (viability score) ([1]; 50 µg/mL drug + Fe2+ (iron), 24 h): 2.2; viability of adult F. hepatica (viability score) ([1]; 50 µg/mL drug + hemin, 24 h): 2.5; viability of adult F. hepatica (viability score) ([1]; 50 µg/mL drug alone, 24 h): not affected; Histopathologic observation ([4]; 200 mg/kg oral, mouse 4): Nuclear polymorphism; Histopathologic observation ([4]; 400 mg/kg oral, mouse 4): No lesions; Histopathologic observation ([4]; 800 mg/kg oral, mouse 4): Slight hydropic degeneration and nuclear polymorphism; AST values of single mice ([4]; mice, 200 mg/kg oral, 8 h): Two mice treated with 200 mg/kg MT04 had highly elevated AST values; liver histology, group summary ([4]; mice, 400 mg/kg oral, 8 h): no pathologic liver histology; hepatic toxicity in vivo (overall) ([4]; mice, single oral doses up to 800 mg/kg, 8 h): no relevant hepatic toxicity
